Measurements taken from publication PMC5330312, “Design and engineering of water-soluble light-harvesting protein maquettes” (Chemical Science, 2016).
Values belong to the compound of their own block, whether it stands above or below them.

How the values were obtained:
[1] = system: His-containing maquette; assay: Absorption spectra of porphyrin with His-containing maquette; format: binding; conditions: 4 μM porphyrin, 2 μM maquette
Excerpt: (§1) The structural requirements for tetrapyrrole self-assembly in aqueous solution were first tested with Zn tetraphenyl porphyrins. The solubility in polar and non-polar environments was adjusted through combinations of hydrophobic and hydrophilic groups at the meso positions. Zn tetrapyrrole pigments discussed in this text are abbreviated with bold numbers, with full chemical names given in the Experimental section and structures illustrated in the figures. […] Thus, one non-polar edge of a Zn porphyrin was sufficient to provide facile binding.
(§2) Blue, green and red spectra correspond to no maquette, His-free maquette or His-containing maquette, respectively. Panel (A) and (B) show spectra for 4 μM porphyrins (1) or (2) respectively with 2 μM maquette, when present.
(§3) Protein solutions were prepared in CHES buffer (20 mM, 150 mM KCl, pH 9.0). Binding was monitored by UV/Vis Soret band absorbance on a Varian Cary-50 spectrophotometer at room temperature in a 1 cm path quartz cuvette. Secondary structure was monitored by CD spectroscopy (Aviv Model 410) at 25 °C with a 1 mm path quartz cuvette. Thermal denaturation was followed by monitoring the ellipticity at 222 nm every 5 °C after 15 minutes of equilibration. Melting temperatures were calculated using a Boltzmann equation with one term for each observed transition.

[2] = Water solubility of the tetrapyrrole (qualitative); format: physicochemical
[3] = system: His-free control maquette; assay: Absorption spectra of porphyrin with His-free control maquette; format: binding; conditions: 4 μM porphyrin, 2 μM maquette
Excerpt: as §1, §2, §3

[4] = system: His-containing four-helix maquette (histidines at positions 7 and 112); assay: Cofactor binding titration into His maquette, UV/Vis spectra analysed by SVD; conditions: for comparative binding affinity, in words: maquette, Fig. 4; for Kd: CHES buffer pH 9.0, 25 °C, SVD fit of spectral titration, read-out: Kd (dissociation constant for each His site)
Excerpt: To determine the acceptable range and pattern of hydrophobic vs. hydrophilic perimeters for Zn porphyrins, we synthesized all permutations of phenyl and carboxyphenyl tetra meso substituents (Fig. 3 and 4). The visible spectral changes that occurred as these porphyrins were titrated into a His maquette solution were fitted to a simple binding model with a single dissociation constant (K d) for each His site using singular value decomposition.[16] […] At least one hydrophobic and one hydrophilic group substitution is necessary for porphyrin ligating to the maquettes with nanomolar affinities.
as §3
Pigment stock solutions were weighed out and solubilized in dimethylsulfoxide to give concentrations of 1 mM Zn porphyrins, 1 mM chlorin (11), 500 μM chlorin (12), and 2 mM chlorin (13). Binding of Zn porphyrins shift the Soret peak from 422 nm to 432 nm. Binding of chlorins shift the Soret band from 415 nm to 423 nm for (12), 411 nm to 425 nm for (13), and 409 nm to 417 nm for (11). Dissociation constants (K d values) were determined as follows. To 1 ml of protein solution at 25 °C, 1 μl additions of 0.2 (porphyrin) or 0.1 (chlorin) equivalent aliquots were added successively to obtain a spectrum from 300 to 700 nm. At 1 equivalent of cofactor the DMSO concentration is 1%. Titrations typically ended at 4 equivalents of cofactor. […] The amplitudes of the first two principle components as a function of total pigment added fit well to a mathematical model of a single dissociation constant for each protein binding site to generate fit spectral extinction coefficients at each wavelength for the unbound and bound pigment spectra as well as values and error estimates for the dissociation constants.

[5] = system: protein maquette; assay: Stopped-flow mixing of tetrapyrrole and maquette (binding kinetics); conditions: for binding speed, in words: stopped-flow mixing
Method: Tetrapyrrole and protein were added to separate syringes of an OLIS RSM 1000 stopped flow spectrophotometer, which takes a full visible spectrum every millisecond through a 2 cm flow cell after rapid (∼2 ms deadtime) mixing. Temperature was controlled with a Fischer-Scientific IsoTemp 3031 water bath. Individual wavelengths were selected for further kinetic analysis. All experiments were performed in triplicate, and the data were averaged together for further analysis.
Title: Design and engineering of water -soluble light-harvesting protein maquettes Goutham Kodali, Joshua A. Mancini, Lee A. Solomon, Tatiana Esipova, Nicholas Roach, Christopher J. Hobbs, Pawel Wagner, Olga A. Mass, Kunche Aravindu, Jonathan E. Barnsley, Keith C. Gordon, David L. Officer, P. Leslie Dutton and Christopher C. Moser*
Figure S1: Proliferating carbox ylic groups on the 15- porph yrin substituent leads to faster […]
Conditions: 2 µ M of protein maquette in 20 mM CHES, 150 mM KCl mixed with one equivalent of porphyrin, either 5- phen yl-15-carbox y phen ylporph yrin [9] (red) or 5- phen yl -15- Newkome phen ylporphyrin [10] (green).
Normalized absorbance i ncreas e with time in seco nds.

[6] = system: maquette; assay: Thermal denaturation of maquette by circular dichroism at 222 nm; conditions: 2 μM maquette with 2 equivalents of cofactor
Method: Fig. 7 Thermal stability of the maquette increased upon tetrapyrrole binding. Circular dichroism at 222 nm monitors alpha helical folding for 2 μM maquette without (blue) or with (red) 2 equivalents of (11) as a function of temperature.
as §3

- water solubility, in words [2]: highly water-soluble
Compound: O=S(=O)([O-])c1ccc(-c2c3nc(c(-c4ccc(S(=O)(=O)[O-])cc4)c4ccc([n-]4)c(-c4ccc(S(=O)(=O)[O-])cc4)c4nc(c(-c5ccc(S(=O)(=O)[O-])cc5)c5ccc2[n-]5)C=C4)C=C3)cc1.[Zn+2].[Zn+2].[Zn+2] [compound 1, Zn(II) 5,10,15,20-tetra(4-sulphonatophenyl)porphyrin]
- association with His-containing maquette (Soret spectral change) [1]: does not associate with either maquette
- association with His-free maquette (Soret spectral change) [3]: does not associate with either maquette

- comparative binding affinity, in words [4]: too weak to measure accurately
Compound: C1=Cc2nc1c(-c1ccccc1)c1ccc([n-]1)c(-c1ccccc1)c1nc(c(-c3ccccc3)c3ccc([n-]3)c2-c2ccccc2)C=C1.[Zn+2] [compound 3, Zn(II) 5,10,15,20-tetraphenylporphyrin, reference compound]

- comparative binding affinity, in words [4]: too weak to measure accurately
Compound: O=C(O)c1ccc(-c2c3nc(c(-c4ccc(C(=O)O)cc4)c4ccc([n-]4)c(-c4ccc(C(=O)O)cc4)c4nc(c(-c5ccc(C(=O)O)cc5)c5ccc2[n-]5)C=C4)C=C3)cc1.[Zn+2] [compound 8, Zn(II) 5,10,15,20-tetra(4-carboxyphenyl)porphyrin]

- time for binding equilibrium to reach completion ([5]; stopped flow, 2 µM maquette, one equivalent of porphyrin, 20 mM CHES, 150 mM KCl): 20 min
Compound: O=C(O)c1ccc(-c2c3nc(cc4ccc([n-]4)c(-c4ccccc4)c4nc(cc5ccc2[n-]5)C=C4)C=C3)cc1.[Zn+2] [compound 9, Zn(II) 5-phenyl-15-(p-carboxyphenyl)porphyrin]

- Kd ([4]; His maquette): 4 ± 3 nM
Compound: C=Cc1c(C)c2[n]3c1=CC1=[N+]4C(=Cc5c(C)c6c7[n]5[Zn-2]34[N+]3=C(C=2)[C@@H](C)[C@H](CCC(=O)O)C3=C7[C@@H](C(=O)OC)C6=O)C(CC)=C1C (stereo partly drawn) [compound 13, Zn pheophorbide a]

Continued, compound first:

Compound: O=S(=O)([O-])c1ccc(-c2c3nc(c(-c4ccc(S(=O)(=O)[O-])cc4)c4ccc([n-]4)c(-c4ccc(S(=O)(=O)[O-])cc4)c4nc(c(-c5ccccc5)c5ccc2[n-]5)C=C4)C=C3)cc1.O=S(=O)([O-])c1ccc(-c2c3nc(c(-c4ccc(S(=O)(=O)[O-])cc4)c4ccc([n-]4)c(-c4ccc(S(=O)(=O)[O-])cc4)c4nc(c(-c5ccccc5)c5ccc2[n-]5)C=C4)C=C3)cc1.[Zn+2].[Zn+2].[Zn+2].[Zn+2].[Zn+2] [compound 2, Zn(II) 5,10,15-tri(4-sulphonatophenyl)-5-phenylporphyrin]
- association with His-containing maquette (Soret spectral change) [1]: indicative of histidine ligation
- association with His-free maquette (Soret spectral change) [3]: partial association of the tetrapyrrole with the maquette

Compound: O=C(O)c1ccc(-c2c3nc(c(-c4ccccc4)c4ccc([n-]4)c(-c4ccccc4)c4nc(c(-c5ccccc5)c5ccc2[n-]5)C=C4)C=C3)cc1.[Zn+2] [compound 4, Zn(II) 5-4-(carboxyphenyl)-10,15,20-triphenylporphyrin]
- affinity relative to (5), (6) and (7) ([4]; His maquette, estimated): about two orders of magnitude tighter

Compound: Cc1ccc(-c2c3nc(cc4ccc([nH]4)c(-c4ccc(C(=O)O)cc4)c4nc(cc5ccc2[nH]5)C(C)(C)C4)C=C3)cc1 [compound 11, 15-(4-carboxyphenyl)-17,18-dihydro-18,18-dimethyl-5-p-tolylporphyrin]
- Kd ([4]; His maquette): 80 ± 10 nM
- structure stabilization corresponding to the Tm shift [6]: 6.8 kcal mol^–1
- thermal mid point transition of α-helical structure (Tm) upon chlorin binding ([6]; 46 °C without cofactor): 61 °C
- binding speed, in words [5]: binds much faster than the similarly substituted porphyrin (9)

Compound: CC1(C)Cc2nc1cc1cc(C#Cc3ccccc3)c(cc3nc(cc4ccc([n-]4)c2-c2ccc(C(=O)O)cc2)C=C3)[n-]1.[Zn+2] [compound 12, Zn(II) 15-(4-carboxyphenyl)-17,18-dihydro-18,18-dimethyl-3-(phenylethynyl)porphyrin]
- lowering of affinity relative to (11) ([4]; His maquette, Kd of (12) vs (11)): 4.5 fold

Compound: Zn(II) 5-phenyl-15-(p-carboxyphenyl)porphyrin with first generation Newkome dendrimer [compound 10]
- Kd ([4]; His maquette): 250 ± 47 nM
- water solubility, in words [2]: substantially increased the water solubility
- binding speed, in words [5]: few ms timescale
